# Laboratory results taken from US12594261B2, “Use of heterocyclic derivatives with cardiomyocyte proliferation activity for treatment of heart diseases” (SHANGHAI EAST HOSPITAL (EAST HOSPITAL, TONGJI UNIVERSITY …, priority 2019, dated 2026).
# Test system: neonatal rat ventricular myocytes (NRVMs)
# Assay: Myocyte proliferation assay (EdU) in neonatal rat ventricular myocytes
# Type: cell-based
# Conditions: Rattus norvegicus, Ventricular myocyte, growth relative to blank myocyte growth without compound added; for activation at 1 µM: 1 uM compound; for activation at 3 µM: 3 uM compound; for activation at 10 µM: 10 uM compound
# Description: 1. Isolation of and Culture Neonatal Rat Ventricular Myocytes (NRVMs)
# Ventricles from neonatal rats were separated from the atria, cut into small pieces (about 2×2 mm^2) and then dissociated in Ca^2+-free HBSS containing 0.125 mg ml-1 trypsin (Gibco), 10 μg ml-1 DNase II (Sigma) and 0.1 mg ml-1 collagenase type IV (Sigma). The digestion was carried out under constant stirring at 37° C. for 5 min. The supernatant was collected with FBS (Gibco) after each digestion period. After digestion, the collected supernatant was centrifuged at 1000 g for 10 min at room temperature, and then cell pellets were resuspended in DMEM (Gibco) supplemented with 10% FBS and with 100 uM 5-bromo-2′-deoxyuridine (Sigma). The resuspended cells were passed through a cell strainer ([…], BD Falcon) and seeded onto 100-mm plastic dishes for 2 h at 37° C. in a 5% CO2 to remove fibroblasts, the supernatant was then collected and plated onto 1% gelatin (Sigma)-coated dishes. 24 h after the seeding, the medium was changed to DMEM (Gibco) containing 2% FBS (Gibco), 1% insulin-transferrin-selenium (ITS; Gibco), 1% Penicillin-Streptomycin (Gibco). After 24 hours of low serum culture, remove the medium with DMEM (Gibco) containing 6% FBS (Gibco), 1% insulin-transferrin-selenium (ITS; Gibco), 1% Penicillin-Streptomycin (Gibco), different concentrations of compounds (the compounds were pre-diluted in the medium and the drug concentration was 10 uM, 3 uM, 1 uM, fully mixed). After 36 h add Edu substrate (Invitrogen) according to the manufacturer's guidelines, and then after 12 h cell can be used.
# 2.1. Immobilization: Remove the medium and fix the cells with […] in 200 ul (whichever is covered) for 15 min and wash the cells twice with 500 ul of PBS for 5 min each time.
# 2.2. Broken membrane: Add 200 ul of 0.3% Triton-X 100 (diluted in PBS) to each well, incubate for 10-15 min at room temperature (the time should not be too long), and wash the cells twice with 500 ul of PBS for 5 min each time.
# 2.3. Blocking: Add 200 ul of 10% normal goat serum (diluted with 0.1% PBST) to each well, incubate for 1 h at room temperature, and wash twice with 500 ul of 0.1% PBST for 5 min each time.
# 2.4. Primary antibody: dilute the primary antibody (abcam, ab8295) to blocking solution at a ratio of 1:200, add 100 ul per well, incubate for 1 h at room temperature (may be slightly longer than 2-3 h), wash the cells twice with 500 ul 0.1% PBST for 5 min each time.
# 2.5. Secondary antibody: Dilute the fluorescently labeled secondary antibody (abcam, ab150117) into blocking solution at a ratio of 1:200, add 100 ul per well, incubate for 1 h at room temperature (the time should not be too long), wash the cells twice with 0.1% PBST for 5 min each time, pay attention to the whole process. Protected from light.
# 2.6. Edu staining (Invitrogen C10338)
# 2.6.1 Prepare Click-iT® reaction cocktail according to Table 3. It was important to add the ingredients in the order listed in the table; otherwise, the reaction would not proceed optimally. Use the Click-iT® reaction cocktail within 15 minutes of preparation.
# 2.6.2 Add 0.1 mL of Click-iT® reaction cocktail to each well containing a coverslip. Rock the plate briefly to ensure that the reaction cocktail is distributed evenly over the coverslip.
# 2.6.3 Incubate the plate for 30 minutes at room temperature, protected from light.
# 2.6.4 Remove the reaction cocktail, then wash the cells twice with 0.1% PBST for 5 min each time.
# 2.7. DAPI staining: DAPI stain was diluted to PBS at a ratio of 1:1000, 100 ul per well, incubated for 30 min at room temperature, and the cells were washed twice with PBS for 5 min each.
# We used Molecular Devices' Image Xpress Micro Confocal for high-throughput photo and data analysis.
SMILES,activation at 1 µM [%],activation at 3 µM [%],activation at 10 µM [%]
"CN1C(=O)/C(=C/c2ccc(F)cc2)N=C1N [TJU-B050, (4Z)-2-amino-4-[(4-fluorophenyl)methylidene]-1-methyl-4,5-dihydro-1H-imidazol-5-one]",< 10,< 10,10 to 50
"CN1C(=O)/C(=C/c2ccc3c(c2)OCO3)N=C1NCC1CC1 [TJU-B052, (4Z)-4-[(2H-1,3-benzodioxol-5-yl)methylidene]-2-[(cyclopropylmethyl)amino]-1-methyl-4,5-dihydro-1H-imidazol-5-one]",10 to 50,10 to 50,10 to 50
"COc1ccc(/C=C2\N=C(N)N(C)C2=O)cc1OC [TJU-B070, (4Z)-2-amino-4-[(3,4-dimethoxyphenyl)methylidene]-1-methyl-4,5-dihydro-1H-imidazol-5-one]",< 10,< 10,< 10
"O=C1NC(Nc2ccccc2)=NC1Cc1ccc2c(c1)OCO2 (centres unmarked) [TJU-B005, 4-[(2H-1,3-benzodioxol-5-yl)methyl]-2-(phenylamino)-4,5-dihydro-1H-imidazol-5-one]",10 to 50,< 10,> 50
"O=C1NC(Nc2ccccc2)=N/C1=C\c1cc2c(cc1Cl)OCO2 [TJU-B011, (4Z)-4-[(6-chloro-2H-1,3-benzodioxol-5-yl)methylidene]-2-(phenylamino)-4,5-dihydro-1H-imidazol-5-one]",10 to 50,10 to 50,> 50
"O=C1NC(c2ccccc2)=N/C1=C\c1ccc2c(c1)OC(F)(F)O2 [TJU-B063, (4Z)-4-[(2,2-difluoro-2H-1,3-benzodioxol-5-yl)methylidene]-2-phenyl-4,5-dihydro-1H-imidazol-5-one]",< 10,> 50,< 10
"C/C(=C1/N=C(Nc2ccccc2)NC1=O)c1ccc2c(c1)OCO2 [TJU-B013, (4Z)-4-[1-(2H-1,3-benzodioxol-5-yl)ethylidene]-2-(phenylamino)-4,5-dihydro-1H-imidazol-5-one]",< 10,10 to 50,> 50
"COc1ccc(NC2=N/C(=C\c3ccc4c(c3)OCCO4)C(=O)N2)cc1 [TJU-B006, (4Z)-4-[(2,3-dihydro-1,4-benzodioxin-6-yl)methylidene]-2-[(4-methoxyphenyl)amino]-4,5-dihydro-1H-imidazol-5-one]",10 to 50,10 to 50,> 50
"O=C1NC(c2ccccc2)=N/C1=C\c1ccc2c(c1)OCO2 [TJU-B039, (4Z)-4-[(2H-1,3-benzodioxol-5-yl)methylidene]-2-phenyl-4,5-dihydro-1H-imidazol-5-one]",< 10,,10 to 50
"O=C1NC(NC2CCCCC2)=N/C1=C\c1ccc2c(c1)OCO2 [TJU-B253, (4Z)-4-[(2H-1,3-benzodioxol-5-yl)methylidene]-2-(cyclohexylamino)-4,5-dihydro-1H-imidazol-5-one]",< 10,< 10,< 10
"O=C1NC(Nc2ccccn2)=N/C1=C\c1ccc2c(c1)OCO2 [TJU-B097, (4Z)-4-[(2H-1,3-benzodioxol-5-yl)methylidene]-2-[(pyridin-2-yl)amino]-4,5-dihydro-1H-imidazol-5-one]",< 10,< 10,< 10
"CN1C(=O)/C(=C/c2cccc(Cl)c2)N=C1N [TJU-B056, (4Z)-2-amino-4-[(3-chlorophenyl)methylidene]-1-methyl-4,5-dihydro-1H-imidazol-5-one]",< 10,< 10,< 10
"NC1=N/C(=C\c2ccc3c(c2)OC(F)(F)O3)C(=O)N1 [TJU-B049, (4Z)-2-amino-4-[(2,2-difluoro-2H-1,3-benzodioxol-5-yl)methylidene]-4,5-dihydro-1H-imidazol-5-one]",10 to 50,< 10,10 to 50
"O=C1NC(C2CC2)=N/C1=C\c1ccc2c(c1)OCO2 [TJU-B059, (4Z)-4-[(2H-1,3-benzodioxol-5-yl)methylidene]-2-cyclopropyl-4,5-dihydro-1H-imidazol-5-one]",< 10,< 10,< 10
"COc1ccc(NC2=N/C(=C\c3ccc4c(c3)OCO4)C(=O)N2)cc1 [TJU-B009, (4Z)-4-[(2H-1,3-benzodioxol-5-yl)methylidene]-2-[(4-methoxyphenyl)amino]-4,5-dihydro-1H-imidazol-5-one]",10 to 50,10 to 50,> 50
"CN1C(=O)/C(=C/c2ccccc2F)N=C1N [TJU-B067, (4Z)-2-amino-4-[(2-fluorophenyl)methylidene]-1-methyl-4,5-dihydro-1H-imidazol-5-one]",< 10,< 10,< 10
"O=C1NC(Nc2ccccc2)=N/C1=C\c1ccc2c(c1)OC(F)(F)O2 [TJU-B028, (4Z)-4-[(2,2-difluoro-2H-1,3-benzodioxol-5-yl)methylidene]-2-(phenylamino)-4,5-dihydro-1H-imidazol-5-one]",< 10,< 10,10 to 50
"CN1C(=O)/C(=C/c2ccc3c(c2)OCO3)N=C1Nc1ccccc1 [TJU-B014, (4Z)-4-[(2H-1,3-benzodioxol-5-yl)methylidene]-1-methyl-2-(phenylamino)-4,5-dihydro-1H-imidazol-5-one]",< 10,10 to 50,> 50
"CNC1=N/C(=C\c2ccc3c(c2)OCO3)C(=O)N1 [TJU-B033, (4Z)-4-[(2H-1,3-benzodioxol-5-yl)methylidene]-2-(methylamino)-4,5-dihydro-1H-imidazol-5-one]",< 10,< 10,10 to 50
"O=C1NC(NCCN2CCOCC2)=N/C1=C\c1ccc2c(c1)OCCO2 [TJU-B026, (4Z)-4-[(2,3-dihydro-1,4-benzodioxin-6-yl)methylidene]-2-{[2-(morpholin-4-yl)ethyl]amino}-4,5-dihydro-1H-imidazol-5-one]",10 to 50,< 10,> 50
"O=C1NC(Nc2ccccc2)=N/C1=C\c1ccc2c(c1)OCO2 [TJU-B043, (4Z)-4-[(2H-1,3-benzodioxol-5-yl)methylidene]-2-(phenylamino)-4,5-dihydro-1H-imidazol-5-one]",10 to 50,10 to 50,10 to 50
"N#Cc1ccc(NC2=N/C(=C\c3ccc4c(c3)OCO4)C(=O)N2)cc1 [TJU-B058, 4-{[(4Z)-4-[(2H-1,3-benzodioxol-5-yl)methylidene]-5-oxo-4,5-dihydro-1H-imidazol-2-yl]amino} benzonitrile]",10 to 50,< 10,< 10
